Converted amounts (≈) assume the structure as drawn. Where two headings read alike, the source gives them in different places.
Legend:
[1] = Metabolic stability in human liver microsomes; format: in vitro ADME
Experimental: Working solution: 5 μL of compound and control stock solution (10 mM in dimethyl sulfoxide (DMSO)) were diluted with 495 μL of acetonitrile (ACN) (intermediate solution concentration: 100 μM, 99% ACN)
NADPH Cofactor Preparation: NADPH powder: β-Nicotinamide adenine dinucleotide phosphate reduced form, tetrasodium salt; NADPH·4Na. The appropriate amount of NADPH powder was weighed and diluted into a 10 mM MgCl2 solution (working solution concentration: 10 unit/mL; final concentration in reaction system: 1 unit/mL)
Liver Microsomes Preparation: The appropriate concentrations of microsome working solutions were prepared in 100 mM potassium phosphate buffer. Cold (4° C.) acetonitrile (ACN) containing 200 ng/mL tolbutamide and 200 ng/mL labetalol as internal standards (1S) was used as the stop solution
Assay Procedure: Pre-warm empty ‘Incubation’ plates T60 and NCF60 for 10 minutes. Dilute liver microsomes to 0.56 mg/mL in 100 mM phosphate buffer. Transfer 445 μL microsome working solutions (0.56 mg/mL) into pre-warmed ‘Incubation’ plates T60 and NCF60, Then pre-incubate ‘Incubation’ plates T60 and NCF60 for 10 min at 37° C. with constant shaking. Transfer 54 μL liver microsomes to blank plate, then add 6 μL NAPDH cofactor to blank plate, and then add 180 μL quenching solution to blank plate. Add 5 μL compound working solution (100 μM) into ‘incubation’ plates (T60 and NCF60) containing microsomes and mix 3 times thoroughly.
For the NCF60 plate, add 50 μL of buffer and mix 3 times thoroughly. Start timing; plate will be incubated at 37° C. for 60 min while shaking. In ‘Quenching’ plate T0, add 180 μL quenching solution and 6 μL NAPDH cofactor. Ensure the plate is chilled to prevent evaporation. For the T60 plate, mix 3 times thoroughly, and immediately remove 54 μL mixture for the 0-min time point to ‘Quenching’ plate. Then add 44 μL NAPDH cofactor to incubation plate (T60). Start timing; plate will be incubated at 37° C. for 60 min while shaking. At 5, 10, 20, 30, and 60 min, add 180 μL quenching solution to ‘Quenching’ plates, mix once, and serially transfer 60 μL sample from T60 plate per time point to ‘Quenching’ plates. For NCF60: mix once, and transfer 60 μL sample from the NCF60 incubation to ‘Quenching’ plate containing quenching solution at the 60-min time point. All sampling plates are shaken for 10 min, then centrifuged at 4000 rpm for 20 minutes at 4° C. Transfer 80 μL supernatant into 240 μL HPLC water, and mix by plate shaker for 10 min. Each bioanalysis plate was sealed and shaken for 10 minutes prior to LC-MS/MS analysis.
The equation of first order kinetics was used to calculate T½ and CLint(mic) (μL/min/mg). Equation of first order kinetics: […]
The biological stability of the compounds of the disclosure can be measured by determining its ½ life in the presence microsomes. Presented in Table 5, is the ½ life of selected compounds of the disclosure in the presence of human liver microsomes (HLM) or mouse liver microsomes (MLM) as described above. In Table 5, ½ life is presented as “++++” (value is greater than 60 minutes), “+++” (value is greater than 30 minutes and less than or equal to 60 minutes), “++” (value is greater than 15 minutes and less than or equal to 30 minutes) and “+” (value is 15 minutes or less).

[2] = Solubility determination (PBS 7.4, SIF, SGF); format: physicochemical; conditions: for solubility at 2 h: kinetic from dmso stock
Experimental: Preparation of stock solutions: The stock solutions of test compounds and control compound diclofenac were prepared in DMSO at the concentrations of 10 mM.
Simulated Gastric Fluid (SGF): An aqueous mixture including hydrochloric acid, sodium chloride, and pepsin (pH=1.2).
Simulated Intestinal Fluid (SIF): Prepared by dissolving 6.8 g of KH2PO4 into about 500 mL ultrapure water and adjust the solution to a pH 6.8 with 0.1 M NaOH. 10 g trypsin is then dissolved into ultrapure water. The two solutions are mixed well and diluted with ultrapure water to a final volume of 1000 mL.
485 μL of (SIF, SGF, PBS 7.4, FESSIF, or FESSGF) was added into each vial of the cap-less Solubility Sample plate. The assay was performed in duplicate. Add one stir stick to each vial and seal using a molded PTFE/Silicone plug. […] After completion of the 2 hours, plugs were removed and the stir sticks were removed using a big magnet, the samples from the Solubility Sample plate were transferred into the filter plate. Using the Vacuum Manifold, all the samples were filtered. Aliquot of 5 μL and 5 μL DMSO were taken from the filtrate followed by addition of 490 μL of a mixture of H2O and acetonitrile containing internal standard (1:1). A certain proportion of ultrapure water was used to dilute the diluent according to the peak shape. The dilution factor was changed according to the solubility values and the LC-MS signal response.
Preparation of 300 μM standards (STD): From the 10 mM DMSO STD plate, 6 μL was transferred into the remaining empty plate, and then 194 μL of DMSO was added to that plate to have a STD concentration of 300 μM. From the 300 μM DMSO STD plate, 5 μL DMSO STD and 5 μL SIF was transferred into the remaining empty plate, and then 490 μL of a mixture of H2O and acetonitrile containing internal standard (1:1) was added to that plate to have a final STD concentration of 3 μM. A certain proportion of ultrapure water was used to dilute the diluent according to the peak shape. The concentrations of the standard samples were changed according to the LC-MS signal response.
Procedure for sample analysis: The plate was placed into the well plate autosampler. The samples were evaluated by LC-MS/MS analysis.
Data analysis: All calculations were carried out using Microsoft Excel. The filtrate was analyzed and quantified against a standard of known concentration using LC coupled with mass spectral peak identification and quantitation. Solubility values of the test compound and control compound were calculated as follows: […]
Any value of the compounds that was not within the specified limits was rejected and the experiment was repeated.

[3] = aqueous buffer, PBS pH 7.4, 25° C., 2 hours, read-out: Solubility pH 7.4 PBS buffer
[4] = simulated gastric fluid (SGF), simulated gastric fluid pH 1.2, 25° C., 2 hours, read-out: Solubility SGF
[5] = simulated intestinal fluid (SIF), simulated intestinal fluid pH 6.8, 25° C., 2 hours, read-out: Solubility SIF

Structure (SMILES) | ½ life minutes (HLM) [1] | solubility at 2 h [2, 5] | Solubility SIF ([2]; simulated intestinal fluid pH 6.8, 25° C., 2 hours) | solubility at 2 h [2, 3] | solubility at 2 h [2, 4] | improvement in solubility compared to Comparative Compounds 1-3 ([2]; simulated intestinal fluid) | improvement in solubility compared to Comparative Compounds 1-3 ([2]; PBS buffer)
CS(=O)(=O)Nc1cc(-c2ccc3ncnc(Nc4ccc(F)c(Cl)c4)c3c2)cnc1Cl [Comparative Compound 2, reference compound] | ++++ (value is greater than 60 minutes) | ≤ 20 µM |  | ≤ 20 µM | > 200 µM |  | 
CS(=O)(=O)Nc1cncc(-c2ccc3ncnc(NCc4ccccc4)c3c2)c1 [Comparative Compound 3, reference compound] | ++++ (value is greater than 60 minutes) |  | * (value is 20 μM or less) |  |  |  | 
CC(Nc1c(C#N)cnc2ccc(-c3cnc(N)nc3)cc12)c1ccccc1 (centres unmarked) [Compound 53, 6-(2-aminopyrimidin-5-yl)-4-(1-phenylethylamino) quinoline-3-carbonitrile] | ++++ (value is greater than 60 minutes) | 20 to 100 µM (≈ 7.33 to 36.6 µg/mL) |  |  |  |  | 
C[C@@H](Nc1ncnc2ccc(-c3cnc(Cl)c(NS(C)(=O)=O)c3)cc12)c1ccccc1 [Compound 2R, N-(2-chloro-5-(4-((1R-phenylethyl)amino)quinazolin-6-yl)pyridin-3-yl)methanesulfonamide] | ++++ (value is greater than 60 minutes) | 100 to 200 µM (≈ 45.4 to 90.8 µg/mL) |  | 100 to 200 µM (≈ 45.4 to 90.8 µg/mL) | > 200 µM | at least 5 times | same improvement in solubility
CC(Nc1c(C#N)cnc2ccc(-c3cnc4[nH]ncc4c3)cc12)c1ccccc1 (centres unmarked) [Compound 54, 4-(1-phenylethylamino)-6-(1H-pyrazolo[3,4-b]pyridin-5-yl)quinoline-3-carbonitrile] | +++ (value is greater than 30 minutes and less than or equal to 60 minutes) | ≤ 20 µM |  |  |  |  | 
CS(=O)(=O)Nc1cc(-c2ccc3ncnc(NCc4ccccc4)c3c2)cnc1Cl [Comparative Compound 1, N-[5-[4-(benzylamino)quinazolin-6-yl]-2-chloro-3-pyridyl]methanesulfonamide, reference compound] | ++++ (value is greater than 60 minutes) | ≤ 20 µM |  | ≤ 20 µM | > 200 µM |  | 
C[C@@H](Nc1c(C#N)cnc2ccc(-c3cnc(N)nc3)cc12)c1ccccc1 [Compound 53R, (R)-6-(2-aminopyrimidin-5-yl)-4-((1-phenylethyl)amino)quinoline-3-carbonitrile] | +++ (value is greater than 30 minutes and less than or equal to 60 minutes) | 20 to 100 µM (≈ 7.33 to 36.6 µg/mL) |  |  |  |  | 

Now from value to compound, other results behind:

½ life minutes (HLM) [1] | solubility at 2 h [2, 5] | Solubility SIF ([2]; simulated intestinal fluid pH 6.8, 25° C., 2 hours) | Structure (SMILES) | solubility at 2 h [2, 3] | solubility at 2 h [2, 4] | improvement in solubility compared to Comparative Compounds 1-3 ([2]; simulated intestinal fluid) | improvement in solubility compared to Comparative Compounds 1-3 ([2]; PBS buffer)
++++ (value is greater than 60 minutes) | 100 to 200 µM (≈ 45.4 to 90.8 µg/mL) |  | C[C@H](Nc1ncnc2ccc(-c3cnc(Cl)c(NS(C)(=O)=O)c3)cc12)c1ccccc1 [Compound 2S, N-(2-chloro-5-(4-((1S-phenylethyl)amino)quinazolin-6-yl)pyridin-3-yl)methanesulfonamide] |  |  | at least 5 times | 
++++ (value is greater than 60 minutes) | 20 to 100 µM (≈ 9.44 to 47.2 µg/mL) |  | C[C@@H](Nc1ncnc2ccc(-c3cnc(Cl)c(NS(C)(=O)=O)c3)cc12)c1ccc(F)cc1 [Compound 111R, N-(2-chloro-5-(4-((1R-(4-fluorophenyl)ethyl)amino)quinazolin-6-yl)pyridin-3-yl)methanesulfonamide] | 20 to 100 µM (≈ 9.44 to 47.2 µg/mL) | > 200 µM |  | 

From patent US11673876B2, “Substituted aminobenzyl heteroaryl compounds as EGFR and/or PI3K inhibitors” (Mekanistic Therapeutics LLC, priority 2020, dated 2023)
